Data on four compounds can be found in ChEMBL document CHEMBL1201862, “PubChem BioAssay data set” (2004).

Among the test systems are SK-MEL-2; DU-145; OVCAR-8; NCI-H23; ACHN; SF-295; UO-31; NCI-H460; SK-MEL-28; COLO 205; SR; UACC-257; RPMI-8226; T47D; SW-620; SK-OV-3; MCF7; K562; HCT-15; NCI-H226.
Common to all, as to test: NCI anticancer screen, dose series, 48 h

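Exposure lasted 48 hours, with cells grown in 96-well plates and compounds tested at five concentrations. Abbreviation: GI50, concentration required for 50% inhibition of growth.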 The source made the active and inactive calls. No stated cut-off is given here; in the data, active = GI50 up to about 1.1 µM and inactive = higher. Bounds are passed on as bounds.

Consider `O=C1CSC(/C=C/c2ccccc2)N1c1ccc(-c2ccc(-n3c(-c4ccccc4)nc4ccccc4c3=O)cc2)cc1` (stereo not given), for which the GI50 in the assay on SK-MEL-2 is 19.1 µM (inactive); in the assay with DU-145, 24.7 µM (inactive); in the assay with OVCAR-8, 25.1 µM (inactive); with NCI-H23, 35.6 µM (inactive); in the assay on ACHN, 23.6 µM (inactive); in the assay with SF-295, 20.1 µM (inactive). In addition, the GI50 was 14.2 µM (inactive) with UO-31; 30.7 µM (inactive) in the assay on NCI-H460; 18.8 µM (inactive) with SK-MEL-28; 18.2 µM (inactive) in the assay with COLO 205; 28.3 µM (inactive) with SR; 30.3 µM (inactive) with UACC-257. Further, the GI50 in the assay on RPMI-8226 is 27.9 µM (inactive); in the assay with T47D, 15.2 µM (inactive); in the assay on SW-620 it was 19.4 µM (inactive); with SK-OV-3, 51.8 µM (inactive); with MCF7, 22.6 µM (inactive); with K562, 25.9 µM (inactive). Moreover, the GI50 with HCT-15 was 20.7 µM.

In the case of `Cc1cc2c(cc1Cl)SC(NNC1=NCCN1)=NS2(=O)=O`, the GI50 in the assay on SK-MEL-2, in the assay with DU-145, with OVCAR-8, with NCI-H23, with ACHN and in the assay on SF-295 was > 10 µM (inactive) throughout. Moreover, the GI50 with UO-31, with NCI-H460, in the assay with SK-MEL-28, in the assay on COLO 205, with UACC-257 and with RPMI-8226 was > 10 µM (inactive) throughout. Also, the GI50 is > 10 µM (inactive) in the assay with T47D; > 10 µM (inactive) with SW-620; > 10 µM (inactive) with NCI-H226; > 10 µM (inactive) in the assay on SK-OV-3; 0.00248 µM (active) with MCF7; > 10 µM (inactive) in the assay on K562. For the same compound, in the assay on HCT-15, the GI50 was over 10 µM.

For `COc1c(C(C)(C)C)cc(CC2C(=O)C=CC2=O)cc1C(C)(C)C`, the GI50 is 19 µM (inactive) in the assay on SK-MEL-2; 6.53 µM (inactive) with DU-145; 9.68 µM (inactive) in the assay with OVCAR-8; 22.4 µM (inactive) with NCI-H23; 8.47 µM (inactive) in the assay on ACHN; 20.2 µM (inactive) with SF-295. The GI50 was 8.61 µM (inactive) in the assay with UO-31; 20.2 µM (inactive) with NCI-H460; 16.6 µM (inactive) in the assay on SK-MEL-28; 6.75 µM (inactive) with COLO 205; 3.89 µM (inactive) with SR; 17.5 µM (inactive) in the assay with UACC-257. In addition, the GI50 in the assay on RPMI-8226 was 2.95 µM (inactive); with T47D, 4.18 µM (inactive); in the assay on SW-620, 6.92 µM (inactive); in the assay on SK-OV-3 it was 25.1 µM (inactive); in the assay on MCF7, 16.7 µM (inactive); in the assay with K562, 4.93 µM (inactive). The compound also showed a GI50 in the assay on HCT-15 of 14.1 µM.

As for `CC(=O)OC1=NN=C2COC(c3ccccc3OC(C)=O)=NN2C1`, the GI50 was 36.2 µM (inactive) with SK-MEL-2; > 50 µM (inactive) in the assay with DU-145; > 50 µM (inactive) with NCI-H23; > 50 µM (inactive) with ACHN; > 50 µM (inactive) in the assay on SF-295; 38.2 µM (inactive) in the assay with UO-31. In addition, the GI50 was > 50 µM (inactive) in the assay on NCI-H460; 21.9 µM (inactive) with SK-MEL-28; 40.1 µM (inactive) in the assay with COLO 205; > 50 µM (inactive) with SR; 20.4 µM (inactive) in the assay with UACC-257; > 50 µM (inactive) in the assay on RPMI-8226. In addition, the GI50 was > 50 µM (inactive) in the assay with T47D; > 50 µM (inactive) with SW-620; > 50 µM (inactive) in the assay with SK-OV-3; > 50 µM (inactive) in the assay with MCF7; > 50 µM (inactive) with K562; over 50 µM with HCT-15.
